According to patent publication US20240342316A1, “A PHARMACEUTICAL COMPOSITION FOR IMAGING” (ASTELLAS PHARMA INC., priority 2021, published 2024):

Legend:
[1] = Phase 1 single ascending IV bolus dose study: plasma and urine pharmacokinetics; conditions: for t1/2, apparent terminal plasma elimination half-life: healthy participants, n = 4, arithmetic mean
Text: The study (ClinicalTrials.gov Identifier: NCT03698305) was a randomized, double-blind, placebo-controlled, sequential ascending IV bolus dose group study conducted at a single center (Covance Clinical Research Unit, Inc.) in the United States.
The study population, 30 participants in all, was comprised of 5 cohorts consisting of 6 healthy volunteers (3 females and 3 males) per cohort. […] The study consisted of a screening period, an investigational period, and a follow-up period (FIG. 1). Following successful screening, participants were admitted to the clinic on study day −1.
After at least 5 of 6 patients in a cohort had completed the study procedure, a Dose-Escalation Committee reviewed all PK and safety data, and decided whether to proceed with dose escalation, stop dose escalation, repeat a dose level, or investigate a lower dose level intermediate between the current and prior doses.
Blood and urine samples were collected over a 24-hour period. Participants were discharged on day 2, returned to the clinic for a follow-up visit on day 7, and the study was completed with a follow-up phone call on day 14. To prevent accidental unblinding should the urine be discolored, catheter and tubing collection bags were covered, and participants were prevented from observing these or the collection vials when changed.
Urine interval sampling was between −1 hour and time of dosing, and between each subsequent consecutive urine sample collection time point.
The safety population comprised all participants who received a single dose of study drug. The PK population comprised safety population participants for which data were available for derivation of ≥1 PK parameter. Pharmacokinetic parameters were calculated by noncompartmental analysis using Phoenix WinNonlin version 8.1 and were summarized by treatment group.

[2] = NIR versus white light; cited from earlier work

| SMILES | Mean terminal half-life, range across doses ([1]; 0.1 mg to 24 mg single IV bolus) [h] | t1/2, apparent terminal plasma elimination half-life ([1]; single IV bolus 0.1 mg) [h] | t1/2, apparent terminal plasma elimination half-life ([1]; single IV bolus 0.5 mg) [h] | t1/2, apparent terminal plasma elimination half-life ([1]; single IV bolus 2 mg) [h] | t1/2, apparent terminal plasma elimination half-life ([1]; single IV bolus 8 mg) [h] | t1/2, apparent terminal plasma elimination half-life ([1]; single IV bolus 24 mg) [h] | NIRF ureter visualization in first-in-human study [2] |
| --- | --- | --- | --- | --- | --- | --- | --- |
| COC1=C(/C=C/C2=[N+](CCC(=O)NCCCO[C@H]3[C@H]4O[C@H]5[C@H](O)[C@@H](O)[C@@H](O[C@H]6[C@H](O)[C@@H](O)[C@@H](O[C@H]7[C@H](O)[C@@H](O)[C@@H](O[C@H]8[C@H](O)[C@@H](O)[C@@H](O[C@H]9[C@H](O)[C@@H](O)[C@@H](O[C@H]%10[C@H](O)[C@@H](O)[C@@H](O[C@@H]([C@@H]3O)[C@@H](CO)O4)O[C@@H]%10CO)O[C@@H]9CO)O[C@@H]8CO)O[C@@H]7CO)O[C@@H]6CO)O[C@@H]5CO)c3ccc4ccccc4c3C2(C)C)CCC/C1=C\C=C1\N(CCC(=O)NCCCO[C@H]2[C@H]3O[C@H]4[C@H](O)[C@@H](O)[C@@H](O[C@H]5[C@H](O)[C@@H](O)[C@@H](O[C@H]6[C@H](O)[C@@H](O)[C@@H](O[C@H]7[C@H](O)[C@@H](O)[C@@H](O[C@H]8[C@H](O)[C@@H](O)[C@@H](O[C@H]9[C@H](O)[C@@H](O)[C@@H](O[C@@H]([C@@H]2O)[C@@H](CO)O3)O[C@@H]9CO)O[C@@H]8CO)O[C@@H]7CO)O[C@@H]6CO)O[C@@H]5CO)O[C@@H]4CO)c2ccc3ccccc3c2C1(C)C [Pudexacianinium] | 2.1 to 3.6 | 2.24 | 2.23 | 2.10 | 3.58 | 3.41 |  |
| CN(C)c1ccc2nc3ccc(=[N+](C)C)cc-3sc2c1 [methylene blue] |  |  |  |  |  |  | did not provide sufficient optical properties to offer any visualization advantage with NIR over white light |
